ChEMBL document CHEMBL3580597 (J Med Chem, 2015)

Legend:
[1] = target: T1, Bromodomain-containing protein 4 (Homo sapiens, UniProt O60885); experiment: Displacement of FAM-labeled ZBA248 from BRD4 BD2 (333 to 460 amino acid residues) (unknown origin) expressed in Rosetta2 DE3 cells after 30 mins by fluorescence polarization assay
[2] = target: T1, Bromodomain-containing protein 4; experiment: Displacement of FAM-labeled ZBA248 from BRD4 BD1 (44 to 168 amino acid residues) (unknown origin) expressed in Rosetta2 DE3 cells after 30 mins by fluorescence polarization assay
K562 = experiment: cells; type: functional, cell-based; conditions: Homo sapiens, K562, 96 h
[3] = target: T2, Bromodomain-containing protein 2 (Homo sapiens, UniProt P25440); experiment: Displacement of FAM-labeled ZBA248 from BRD2 BD2 (349 to 460 amino acid residues) (unknown origin) expressed in Rosetta2 DE3 cells after 30 mins by fluorescence polarization assay
[4] = target: T2, Bromodomain-containing protein 2; experiment: Displacement of FAM-labeled ZBA248 from BRD2 BD1 (72 to 205 amino acid residues) (unknown origin) expressed in Rosetta2 DE3 cells after 30 mins by fluorescence polarization assay
MV4-11 = experiment: cells; type: functional, cell-based; conditions: Homo sapiens, MV4-11, 96 h
[5] = target: T3, Bromodomain-containing protein 3 (Homo sapiens, UniProt Q15059); experiment: Binding affinity to biotinylated BRD3 BD2 (306 to 417 amino acid residues) (unknown origin) expressed in Rosetta2 DE3 cells by bio-layer interferometry method
[6] = target: T3, Bromodomain-containing protein 3; experiment: Displacement of FAM-labeled ZBA248 from BRD3 BD2 (306 to 417 amino acid residues) (unknown origin) expressed in Rosetta2 DE3 cells after 30 mins by fluorescence polarization assay
[7] = target: T4, ATPase family AAA domain-containing protein 2 (Homo sapiens, UniProt Q6PL18); experiment: Binding affinity to biotinylated ATAD2A (981 to 1108 amino acid residues) (unknown origin) expressed in Rosetta2 DE3 cells by bio-layer interferometry method
T4 sequence (Q6PL18 whole entry): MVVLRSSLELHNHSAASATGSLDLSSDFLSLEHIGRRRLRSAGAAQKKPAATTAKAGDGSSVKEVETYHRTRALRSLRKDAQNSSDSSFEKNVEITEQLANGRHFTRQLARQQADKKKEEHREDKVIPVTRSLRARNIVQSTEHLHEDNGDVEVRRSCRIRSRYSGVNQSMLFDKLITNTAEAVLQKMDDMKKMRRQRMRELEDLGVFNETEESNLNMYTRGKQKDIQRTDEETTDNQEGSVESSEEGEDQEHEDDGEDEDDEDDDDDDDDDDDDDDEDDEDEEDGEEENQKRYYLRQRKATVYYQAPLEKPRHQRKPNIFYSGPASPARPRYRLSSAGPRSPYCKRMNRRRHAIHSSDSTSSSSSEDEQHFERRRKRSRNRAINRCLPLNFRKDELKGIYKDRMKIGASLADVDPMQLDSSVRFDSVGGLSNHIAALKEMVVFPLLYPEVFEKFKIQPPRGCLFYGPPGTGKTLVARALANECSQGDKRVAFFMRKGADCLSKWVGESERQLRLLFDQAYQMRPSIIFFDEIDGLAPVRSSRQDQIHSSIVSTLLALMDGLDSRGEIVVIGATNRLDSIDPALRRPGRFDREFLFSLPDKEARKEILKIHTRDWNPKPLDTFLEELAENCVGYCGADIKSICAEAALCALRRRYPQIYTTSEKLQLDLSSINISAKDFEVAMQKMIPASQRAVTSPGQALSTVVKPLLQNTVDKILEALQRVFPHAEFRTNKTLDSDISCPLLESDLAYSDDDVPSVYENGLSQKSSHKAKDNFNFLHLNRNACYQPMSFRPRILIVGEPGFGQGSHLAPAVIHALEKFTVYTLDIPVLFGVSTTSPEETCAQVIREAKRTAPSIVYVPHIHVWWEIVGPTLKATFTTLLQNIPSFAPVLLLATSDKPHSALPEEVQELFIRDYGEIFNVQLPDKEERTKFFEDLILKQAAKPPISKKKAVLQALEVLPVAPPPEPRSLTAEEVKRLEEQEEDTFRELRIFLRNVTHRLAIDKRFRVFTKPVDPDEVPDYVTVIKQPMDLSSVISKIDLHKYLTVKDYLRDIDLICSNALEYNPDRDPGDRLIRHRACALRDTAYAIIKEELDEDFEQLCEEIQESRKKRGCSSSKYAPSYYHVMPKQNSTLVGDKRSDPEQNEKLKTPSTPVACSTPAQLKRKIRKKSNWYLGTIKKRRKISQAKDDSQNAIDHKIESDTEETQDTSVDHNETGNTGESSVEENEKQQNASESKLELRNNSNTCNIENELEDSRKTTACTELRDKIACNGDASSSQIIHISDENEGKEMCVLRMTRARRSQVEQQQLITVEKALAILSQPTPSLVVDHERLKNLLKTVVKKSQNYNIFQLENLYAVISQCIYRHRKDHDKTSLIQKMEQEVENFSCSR

[8] = target: T3, Bromodomain-containing protein 3; experiment: Displacement of FAM-labeled ZBA248 from BRD3 BD1 (24 to 144 amino acid residues) (unknown origin) expressed in Rosetta2 DE3 cells after 30 mins by fluorescence polarization assay
[9] = target: T3, Bromodomain-containing protein 3; experiment: biochemical; type: cell-based
CREB-binding protein = CREB-binding protein (Homo sapiens, UniProt Q92793); experiment: Binding affinity to biotinylated CREBBP (1043 to 1159 amino acid residues) (unknown origin) expressed in Rosetta2 DE3 cells by bio-layer interferometry method
CREB-binding protein, sequence (Q92793 whole entry, the tested form may be a part): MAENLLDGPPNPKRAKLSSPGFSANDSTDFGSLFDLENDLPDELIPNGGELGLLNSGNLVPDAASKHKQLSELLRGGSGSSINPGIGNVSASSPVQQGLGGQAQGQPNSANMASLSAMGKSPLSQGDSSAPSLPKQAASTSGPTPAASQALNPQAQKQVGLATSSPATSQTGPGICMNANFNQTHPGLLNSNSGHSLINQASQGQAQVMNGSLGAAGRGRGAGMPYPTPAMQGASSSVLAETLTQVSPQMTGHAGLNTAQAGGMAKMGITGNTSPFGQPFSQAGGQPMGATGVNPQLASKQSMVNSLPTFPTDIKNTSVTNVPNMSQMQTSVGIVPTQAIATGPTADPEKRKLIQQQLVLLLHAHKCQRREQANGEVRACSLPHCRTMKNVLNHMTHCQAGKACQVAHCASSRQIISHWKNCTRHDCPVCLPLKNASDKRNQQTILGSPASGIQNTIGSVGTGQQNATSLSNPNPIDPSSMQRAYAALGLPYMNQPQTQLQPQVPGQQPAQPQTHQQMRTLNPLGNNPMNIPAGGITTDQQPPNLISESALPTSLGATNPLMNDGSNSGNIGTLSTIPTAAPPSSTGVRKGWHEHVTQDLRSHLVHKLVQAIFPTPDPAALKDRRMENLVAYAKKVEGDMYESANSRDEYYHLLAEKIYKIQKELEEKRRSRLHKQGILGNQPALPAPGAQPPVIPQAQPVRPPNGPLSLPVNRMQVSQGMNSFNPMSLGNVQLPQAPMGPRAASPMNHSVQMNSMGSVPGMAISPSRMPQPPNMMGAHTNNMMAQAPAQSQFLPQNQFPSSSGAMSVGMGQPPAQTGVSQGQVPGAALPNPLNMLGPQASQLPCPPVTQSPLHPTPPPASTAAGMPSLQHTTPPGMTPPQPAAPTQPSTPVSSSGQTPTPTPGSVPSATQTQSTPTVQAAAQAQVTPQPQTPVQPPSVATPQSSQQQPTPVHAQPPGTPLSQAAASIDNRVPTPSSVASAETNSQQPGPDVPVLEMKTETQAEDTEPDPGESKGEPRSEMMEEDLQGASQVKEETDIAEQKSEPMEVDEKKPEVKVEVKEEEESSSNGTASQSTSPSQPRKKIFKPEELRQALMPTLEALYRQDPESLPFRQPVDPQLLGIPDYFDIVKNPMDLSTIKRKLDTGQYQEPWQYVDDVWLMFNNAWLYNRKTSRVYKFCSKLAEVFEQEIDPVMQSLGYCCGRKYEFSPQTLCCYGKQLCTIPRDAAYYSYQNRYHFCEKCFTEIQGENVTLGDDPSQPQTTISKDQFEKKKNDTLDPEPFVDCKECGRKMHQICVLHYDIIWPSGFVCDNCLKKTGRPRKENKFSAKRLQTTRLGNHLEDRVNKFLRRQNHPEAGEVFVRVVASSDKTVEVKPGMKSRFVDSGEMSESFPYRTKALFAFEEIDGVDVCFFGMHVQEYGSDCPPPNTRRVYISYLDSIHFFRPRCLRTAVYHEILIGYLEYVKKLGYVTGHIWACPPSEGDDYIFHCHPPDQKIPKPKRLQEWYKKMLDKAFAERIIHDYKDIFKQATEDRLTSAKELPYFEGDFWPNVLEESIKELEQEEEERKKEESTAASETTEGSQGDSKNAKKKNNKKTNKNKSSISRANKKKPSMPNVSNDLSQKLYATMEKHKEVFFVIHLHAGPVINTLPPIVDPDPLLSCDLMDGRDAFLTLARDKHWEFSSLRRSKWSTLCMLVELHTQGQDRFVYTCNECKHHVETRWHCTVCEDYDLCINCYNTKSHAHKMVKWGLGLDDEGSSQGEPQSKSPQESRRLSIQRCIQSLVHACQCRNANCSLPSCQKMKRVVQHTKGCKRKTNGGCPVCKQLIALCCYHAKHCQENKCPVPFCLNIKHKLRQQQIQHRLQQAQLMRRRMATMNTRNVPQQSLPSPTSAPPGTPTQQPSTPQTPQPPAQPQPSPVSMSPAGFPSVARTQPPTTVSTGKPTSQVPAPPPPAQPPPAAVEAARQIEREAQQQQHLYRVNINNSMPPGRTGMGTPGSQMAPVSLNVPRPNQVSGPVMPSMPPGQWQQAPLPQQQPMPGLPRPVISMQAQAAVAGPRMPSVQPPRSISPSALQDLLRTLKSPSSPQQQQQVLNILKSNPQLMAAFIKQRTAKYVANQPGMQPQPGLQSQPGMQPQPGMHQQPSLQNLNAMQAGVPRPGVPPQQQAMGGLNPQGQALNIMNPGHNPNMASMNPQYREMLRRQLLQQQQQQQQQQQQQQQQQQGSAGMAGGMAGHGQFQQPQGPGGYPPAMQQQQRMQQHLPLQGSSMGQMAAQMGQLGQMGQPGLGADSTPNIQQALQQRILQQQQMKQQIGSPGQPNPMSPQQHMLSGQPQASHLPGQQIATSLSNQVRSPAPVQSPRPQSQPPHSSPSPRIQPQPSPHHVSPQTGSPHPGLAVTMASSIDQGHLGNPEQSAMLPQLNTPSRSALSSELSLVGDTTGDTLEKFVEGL

T3 sequence (Q15059 whole entry, the tested form may be a part): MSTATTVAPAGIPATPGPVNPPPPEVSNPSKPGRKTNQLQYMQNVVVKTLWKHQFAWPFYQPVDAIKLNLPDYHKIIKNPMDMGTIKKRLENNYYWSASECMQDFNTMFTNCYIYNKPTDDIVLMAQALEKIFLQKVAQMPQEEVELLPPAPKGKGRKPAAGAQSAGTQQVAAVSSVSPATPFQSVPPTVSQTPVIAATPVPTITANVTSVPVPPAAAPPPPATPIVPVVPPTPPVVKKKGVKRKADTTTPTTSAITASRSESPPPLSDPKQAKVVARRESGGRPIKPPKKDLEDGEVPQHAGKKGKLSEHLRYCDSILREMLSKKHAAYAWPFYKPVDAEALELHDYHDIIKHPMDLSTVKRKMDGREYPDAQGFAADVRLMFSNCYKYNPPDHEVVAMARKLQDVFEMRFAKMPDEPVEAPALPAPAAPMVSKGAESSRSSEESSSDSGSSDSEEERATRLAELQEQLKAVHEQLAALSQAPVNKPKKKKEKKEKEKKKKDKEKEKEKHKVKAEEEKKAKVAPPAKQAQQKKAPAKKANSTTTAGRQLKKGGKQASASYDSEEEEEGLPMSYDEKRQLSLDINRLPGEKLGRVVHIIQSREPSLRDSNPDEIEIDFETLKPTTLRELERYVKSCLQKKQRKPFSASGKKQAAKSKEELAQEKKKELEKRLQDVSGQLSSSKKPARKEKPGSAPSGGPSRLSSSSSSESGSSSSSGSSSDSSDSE
T2 sequence (P25440 whole entry, the tested form may be a part): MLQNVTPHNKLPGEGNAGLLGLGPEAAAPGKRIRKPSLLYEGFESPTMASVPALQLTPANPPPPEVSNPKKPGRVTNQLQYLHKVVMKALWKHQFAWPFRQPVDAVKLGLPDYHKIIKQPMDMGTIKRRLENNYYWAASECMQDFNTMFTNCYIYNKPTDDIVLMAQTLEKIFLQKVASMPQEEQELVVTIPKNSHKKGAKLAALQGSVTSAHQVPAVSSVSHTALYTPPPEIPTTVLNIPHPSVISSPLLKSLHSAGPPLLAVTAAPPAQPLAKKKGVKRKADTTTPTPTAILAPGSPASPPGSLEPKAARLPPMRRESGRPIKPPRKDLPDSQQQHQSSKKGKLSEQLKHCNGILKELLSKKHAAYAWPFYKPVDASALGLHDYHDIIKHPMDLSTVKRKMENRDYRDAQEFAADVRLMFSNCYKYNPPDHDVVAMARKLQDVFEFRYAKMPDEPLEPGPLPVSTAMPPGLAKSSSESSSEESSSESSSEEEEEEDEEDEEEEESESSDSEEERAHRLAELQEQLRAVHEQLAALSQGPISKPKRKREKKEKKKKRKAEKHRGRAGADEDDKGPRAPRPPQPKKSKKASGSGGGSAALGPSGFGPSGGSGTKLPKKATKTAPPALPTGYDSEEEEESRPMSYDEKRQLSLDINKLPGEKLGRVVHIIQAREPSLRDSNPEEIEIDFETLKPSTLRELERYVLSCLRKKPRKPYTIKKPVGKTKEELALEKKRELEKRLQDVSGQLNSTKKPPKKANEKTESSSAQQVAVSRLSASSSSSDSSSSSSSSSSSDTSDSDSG

Compound | IC50 [1] | IC50 [2] | Ki [1] | Ki [2] | also measured
COc1cc2c(cc1-c1c(C)noc1C)[nH]c1ccnc(-c3cn[nH]c3)c12 | 658 nM | 702 nM | – | – | –
CCc1n[nH]c(CC)c1-c1nccc2[nH]c3cc(-c4c(C)noc4C)c(OC)cc3c12 | 61.9 nM | 131 nM | 16.1 nM | 44.1 nM | IC50 (K562): > 2000 nM; Ki [3]: 15.4 nM; Ki [4]: 21 nM
COc1cc2c(cc1-c1c(C)noc1C)ncc1[nH]c(=O)n([C@H](C)c3ccccn3)c12 | – | – | – | – | IC50 (MV4-11): 162 nM; Kd [5]: 40.5 nM; Ki [6]: 22.3 nM; Kd [7]: > 10000 nM; Ki [8]: 7.2 nM; Kd [9]: 29.8 nM; IC50 (K562): > 2000 nM; Kd (CREB-binding protein): 3080 nM
COc1cc2c(cc1-c1c(C)n[nH]c1C)[nH]c1ccnc(Cl)c12 | 2580 nM | 4870 nM | 867 nM | 1730 nM | –
Cc1sc2c(c1C)C(c1ccc(Cl)cc1)=N[C@@H](CC(=O)OC(C)(C)C)c1nnc(C)n1-2 | – | – | – | – | IC50 (K562): > 2000 nM
COc1cc2c(cc1-c1c(C)noc1C)[nH]c1ccncc12 | 2690 nM | 4590 nM | – | – | –
COc1cc2c(cc1-c1c(C)noc1C)[nH]c1ccnc(-c3c(C)n[nH]c3C)c12 | 324 nM | 276 nM | – | – | –
COc1cc2c(cc1-c1c(C)nn(C)c1C)[nH]c1ccnc(Cl)c12 | 6170 nM | 14000 nM | 1950 nM | 4840 nM | –
COc1cc2c(cc1-c1c(C)noc1C)[nH]c1ccnc(-c3c(C)nn(-c4ccccc4)c3C)c12 | 316 nM | 301 nM | 98.1 nM | 103 nM | –
CCc1noc(C)c1-c1cc2[nH]c3ccnc(Cl)c3c2cc1OC | 1820 nM | 3870 nM | 478 nM | 1240 nM | –
CCNC(=O)C[C@@H]1N=C(c2ccc(Cl)cc2)c2cc(OC)ccc2-n2c(C)nnc21 [MOLIBRESIB] | – | – | – | – | Kd [7]: > 10000 nM; Kd (CREB-binding protein): > 10000 nM
CCc1onc(C)c1-c1cc2[nH]c3ccnc(Cl)c3c2cc1OC | 13800 nM | 9440 nM | 2180 nM | 2810 nM | –
COc1cc2c(cc1-c1c(C)noc1C)[nH]c1ccnc(Cl)c12 | 579 nM | 862 nM | – | – | –
CCc1noc(CC)c1-c1cc2[nH]c3ccnc(Cl)c3c2cc1OC | 74000 nM | > 10000 nM | 8320 nM | > 10000 nM | –
COc1cc2c(cc1-c1c(C)noc1C)[nH]c1ccnc(-c3c(C)noc3C)c12 | 221 nM | 134 nM | 70.1 nM | 47.8 nM | –
